Test results published in patent US10828316B2, “Method of treating bacterial infections” (priority 2016, dated 2020).
Converted amounts (≈) assume the structure as drawn. Where two headings read alike, the source gives them in different places.

How the values were obtained:
E. coli strain no 2 = test: MIC; details: Escherichia coli
E. coli ATCC 25922 = test: MIC, in vitro sensitivity of the strain used in vivo; details: Escherichia coli
S. aureus strain no 13 = test: MIC; details: Staphylococcus aureus, NO13, read-out: MIC of trimethoprim only
P. mirabilis ST19 EN0445 = test: MIC; format: cell-based, Proteus mirabilis; details: in FdUrd+trimethoprim+uridine combination
S. marescens EN0454 = test: MIC; format: cell-based, Serratia marescens; details: in FdUrd+trimethoprim+uridine combination
P. aeruginosa EN0422 = test: MIC; format: cell-based, Pseudomonas aeruginosa; details: in FdUrd+trimethoprim+uridine combination
K. pneumoniae EN0140 = test: MIC; format: cell-based; details: in FdUrd+trimethoprim+uridine combination
M. luteus EN0455 = test: MIC; format: cell-based, Micrococcus luteus; details: in FdUrd+trimethoprim+uridine combination
E. coli EN0137 = test: MIC; format: cell-based; details: in FdUrd+trimethoprim+uridine combination
E. coli EN0235 = format: cell-based
[1] = test system: A. pittii or A. nosocomialis EN0180; test: MIC; format: cell-based, Acinetobacter pittii or nosocomialis; details: in FdUrd+trimethoprim+uridine combination
K. pneumoniae EN0245 = test: MIC; format: cell-based; details: in FdUrd+trimethoprim+uridine combination
K. pneumoniae EN0144 = test: MIC; format: cell-based; details: in FdUrd+trimethoprim+uridine combination
E. coli EN0138 = test: MIC; format: cell-based; details: in FdUrd+trimethoprim+uridine combination
E. coli EN0134 = test: MIC; format: cell-based; details: in FdUrd+trimethoprim+uridine combination
S. aureus EN008 = test: MIC; format: cell-based, Staphylococcus aureus; details: in FdUrd+trimethoprim+uridine combination
Citrobacter sp. EN0465 = test: MIC; format: cell-based; details: in FdUrd+trimethoprim+uridine combination
K. pneumoniae EN0145 = test: MIC; format: cell-based; details: in FdUrd+trimethoprim+uridine combination
P. aeruginosa EN014 = test: MIC; format: cell-based, Pseudomonas aeruginosa; details: in FdUrd+trimethoprim+uridine combination
K. pneumoniae EN0142 = test: MIC; format: cell-based; details: in FdUrd+trimethoprim+uridine combination
E. coli EN0136 = test: MIC; format: cell-based; details: in FdUrd+trimethoprim+uridine combination
A. baumannii EN016 = test: MIC; format: cell-based, Acinetobacter baumannii; details: in FdUrd+trimethoprim+uridine combination
P. mirabilis EN0457 = test: MIC; format: cell-based, Proteus mirabilis; details: in FdUrd+trimethoprim+uridine combination
E. coli EN003 = test: MIC; format: cell-based, Escherichia coli; details: in FdUrd+trimethoprim+uridine combination

Which results are given for COc1cc(Cc2cnc(N)nc2N)cc(OC)c1OC [Trimethoprim, trimethoprim]?
MIC (E. coli strain no 2; NO2, E. coli strain 2, 5 uM thymidine, uridine 0 μg/ml): 5 to 10 µg/mL (≈ 17.2 to 34.4 µM); MIC (E. coli strain no 2; NO2, E. coli strain 2, 5 uM thymidine, uridine 10 μg/ml): 2.5 to 5 µg/mL (≈ 8.61 to 17.2 µM); MIC (E. coli strain no 2; NO2, E. coli strain 2, 5 uM thymidine, uridine 100 μg/ml): 2.5 to 5 µg/mL (≈ 8.61 to 17.2 µM); MIC (E. coli strain no 2; NO2, read-out: MIC of trimethoprim only, E. coli strain no 2): 8 to 16 µg/mL; score at sampling (E. coli; Trimethoprim 30 mg/kg, single mice): 1; inhibition in mice infected with E. coli (E. coli; murine peritonitis model): slight inhibition; MIC (E. coli ATCC 25922; ATCC25922, read-out: MIC against E. coli ATCC 25922, Plate C: TMP alone): 0.5 µg/mL (≈ 1.72 µM); MIC (E. coli ATCC 25922; ATCC25922, read-out: MIC against E. coli ATCC 25922, Plate F: TMP with 2 μg/ml thymidine): 1 µg/mL (≈ 3.44 µM); MIC (E. coli ATCC 25922; ATCC25922, read-out: MIC against E. coli ATCC 25922: TMP, Plate A: AZT + TMP with 50 μg/ml uridine): 0.06 µg/mL; MIC (E. coli ATCC 25922; ATCC25922, read-out: MIC against E. coli ATCC 25922: TMP, Plate D: AZT + TMP with 50 μg/ml uridine and 2 μg/ml thymidine): 0.5 µg/mL; MIC (S. aureus strain no 13): < 32 µg/mL

How did the MIC (P. mirabilis ST19 EN0445) turn out when O=c1[nH]c(=O)n([C@H]2C[C@H](O)[C@@H](CO)O2)cc1F [FdUrd] was run?
Its MIC is 0.5 µg/mL.

What about the MIC (S. marescens EN0454) of the same compound?
The MIC was over 4 µg/mL.

And the MIC (P. aeruginosa EN0422)?
Its MIC is over 4 µg/mL.

And the MIC (K. pneumoniae EN0140)?
The MIC was over 4 µg/mL.

And the MIC (M. luteus EN0455)?
The MIC was 2 µg/mL.

What about the MIC (E. coli EN0137) of the same compound?
The MIC was over 4 µg/mL.

What about the MIC (E. coli EN0235) of the same compound?
Its MIC is 0.06 µg/mL (≈ 0.244 µM).

And the MIC [1]?
The MIC was 4 µg/mL.

And the MIC (K. pneumoniae EN0245)?
The MIC was over 4 µg/mL.

What about the MIC (K. pneumoniae EN0144) of the same compound?
Its MIC is over 4 µg/mL.

And the MIC (E. coli EN0138)?
Its MIC is 0.25 µg/mL.

What about the MIC (E. coli EN0134) of the same compound?
Its MIC is over 4 µg/mL.

What about the MIC (S. aureus EN008) of the same compound?
Its MIC is under 0.008 µg/mL.

What about the MIC (Citrobacter sp. EN0465) of the same compound?
The MIC was over 4 µg/mL.

And the MIC (K. pneumoniae EN0145)?
The MIC was over 4 µg/mL.

And the MIC (P. aeruginosa EN014)?
The MIC was over 4 µg/mL.

And the MIC (K. pneumoniae EN0142)?
The MIC was 0.125 µg/mL.

What about the MIC (E. coli EN0136) of the same compound?
Its MIC is 1 µg/mL.

And the MIC (A. baumannii EN016)?
The MIC was 4 µg/mL.

What about the MIC (P. mirabilis EN0457) of the same compound?
Its MIC is 1 µg/mL.

And the MIC (E. coli EN003)?
The MIC was 0.016 µg/mL.
